From BindingDB's records for doi:10.1021/jm0301078 (Merck Frosst Centre For Therapeutic Research, 2003)

Tests used:
Test in all cases: Enzyme Inhibition Assay
Cathepsin K = target: T1, Cathepsin K (Homo sapiens, UniProt P43235); conditions: pH 5.5; 22 °C
T1 sequence (P43235 whole entry): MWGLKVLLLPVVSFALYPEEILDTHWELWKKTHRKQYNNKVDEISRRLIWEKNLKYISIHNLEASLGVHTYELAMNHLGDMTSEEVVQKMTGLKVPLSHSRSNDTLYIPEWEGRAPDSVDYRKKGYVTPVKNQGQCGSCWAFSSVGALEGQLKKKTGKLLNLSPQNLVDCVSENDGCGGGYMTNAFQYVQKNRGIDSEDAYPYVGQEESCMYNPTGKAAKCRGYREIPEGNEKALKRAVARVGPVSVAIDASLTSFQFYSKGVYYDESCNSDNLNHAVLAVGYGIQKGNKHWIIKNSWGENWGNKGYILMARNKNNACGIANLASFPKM
Procedure: (§1) Prior to the addition of substrate, different concentrations of the inhibitor ranging from 100 uM to 0.2 nM were preincubated for 15 min with enzyme to allow the establishment of the enzyme-inhibitor complex. The proteolytic cleavage of N-acyl aminocoumarins by cathepsins was conducted in 96-well plate format and the plate read using a Spectramax (Molecular Devices) plate reader. […] The percent inhibition of the reaction was calculated from a control reaction containing only vehicle. IC50 curves were generated by fitting percent inhibition values to a four parameter logistic model (SOFTMAX PRO, Molecular Devices).

Cathepsin S = Cathepsin S (Homo sapiens, UniProt P25774)
Sequence of Cathepsin S (P25774 whole entry): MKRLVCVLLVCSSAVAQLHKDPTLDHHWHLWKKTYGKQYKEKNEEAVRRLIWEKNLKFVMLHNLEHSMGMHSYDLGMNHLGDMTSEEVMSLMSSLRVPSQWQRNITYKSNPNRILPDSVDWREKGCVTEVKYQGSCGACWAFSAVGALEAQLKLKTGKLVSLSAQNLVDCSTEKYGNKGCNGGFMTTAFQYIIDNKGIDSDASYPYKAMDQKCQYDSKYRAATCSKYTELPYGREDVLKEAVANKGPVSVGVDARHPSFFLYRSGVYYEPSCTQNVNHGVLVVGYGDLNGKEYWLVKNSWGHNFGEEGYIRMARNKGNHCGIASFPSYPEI
Procedure: as §1

Procathepsin L = Procathepsin L (Homo sapiens, UniProt P07711)
Sequence of Procathepsin L (P07711 whole entry): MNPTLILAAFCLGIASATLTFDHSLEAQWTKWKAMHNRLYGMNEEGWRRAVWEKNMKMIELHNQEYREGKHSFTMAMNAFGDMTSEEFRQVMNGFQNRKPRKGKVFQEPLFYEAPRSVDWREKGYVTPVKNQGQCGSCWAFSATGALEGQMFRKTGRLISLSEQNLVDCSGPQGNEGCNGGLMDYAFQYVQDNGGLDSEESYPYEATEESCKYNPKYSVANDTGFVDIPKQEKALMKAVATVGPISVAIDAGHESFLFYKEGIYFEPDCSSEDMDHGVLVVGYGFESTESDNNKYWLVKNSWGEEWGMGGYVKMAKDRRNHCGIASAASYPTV
Procedure: as §1

| SMILES | IC50 (Cathepsin K) [µM] | IC50 (Cathepsin S) [µM] | IC50 (Procathepsin L) [µM] |
| --- | --- | --- | --- |
| CC(C)C[C@@H](C(=O)NCC#N)c1cccc(-c2ccc(-c3nnn[nH]3)cc2)c1 [(2R)-N-(cyanomethyl)-4-methyl-2-{3-[4-(1H-1,2,3,4-tetrazol-5-yl)phenyl]phenyl}pentanamide] | 2.58 | > 10 | > 10 |
| CC(C)CC(C(=O)NCC#N)c1cccc(-c2ccccn2)c1 (centres undefined) [N-(cyanomethyl)-4-methyl-2-[3-(pyridin-2-yl)phenyl]pentanamide] | 0.803 | 8.04 | 5.95 |
| CC(C)CC(C(=O)NCC#N)c1cccc(-c2cccnc2)c1 (centres undefined) [N-(cyanomethyl)-4-methyl-2-[3-(pyridin-3-yl)phenyl]pentanamide] | 0.488 | > 10 | 5.58 |
| CC(C)CC(C(=O)NCC#N)c1cccc(-c2ccncc2)c1 (centres undefined) [N-(cyanomethyl)-4-methyl-2-[3-(pyridin-4-yl)phenyl]pentanamide] | 0.15 | 1.75 | 5.78 |

Now from value to molecule:

| IC50 (Cathepsin K) [µM] | IC50 (Cathepsin S) [µM] | IC50 (Procathepsin L) [µM] | SMILES |
| --- | --- | --- | --- |
| 0.614 | 3.37 | 0.919 | CC(C)CC(C(=O)NCC#N)c1cccc(-c2ccccc2N2CCOCC2)c1 (centres undefined) [N-(cyanomethyl)-4-methyl-2-{3-[2-(morpholin-4-yl)phenyl]phenyl}pentanamide] |
| 0.058 | 0.521 | 0.338 | CC(C)CC(C(=O)NCC#N)c1cccc(-c2ccccc2N2CCNCC2)c1 (centres undefined) [N-(cyanomethyl)-4-methyl-2-{3-[2-(piperazin-1-yl)phenyl]phenyl}pentanamide] |
| 0.63 | > 10 | > 10 | CC(C)CC(C(=O)NCC#N)c1cccc(-c2cccc(N3CCOCC3)c2)c1 (centres undefined) [N-(cyanomethyl)-4-methyl-2-{3-[3-(morpholin-4-yl)phenyl]phenyl}pentanamide] |
| 0.216 | > 10 | > 10 | CC(C)CC(C(=O)NCC#N)c1cccc(-c2cccc(N3CCNCC3)c2)c1 (centres undefined) [N-(cyanomethyl)-4-methyl-2-{3-[3-(piperazin-1-yl)phenyl]phenyl}pentanamide] |
